The target in one assay is Human Cav3.1 (Homo sapiens (Human), UniProt O43497). Kind of assay: Cav3.1 automated patch clamp assay (SyncroPatch 384PE), HEK-293 natClytin/TASK1+Cav3.1 cell line. The settings on record: Table 1, HEK-293 natClytin/TASK1+Cav3.1 cells. Format: cell-based. As for the experimental part: Inhibition of the T-type voltage gated calcium channel (Cav3.1) was evaluated using a HEK-293 natClytin/TASK1+Cav3.1 cell line. Currents were recorded using the SyncroPatch 384PE automated, patch clamp system. Pulse generation and data collection were performed with PatchController384 V1.3.0 and DataController384 V1.2.1 (Nanion Technologies). Off-line analysis was performed using Excel and Graphpad Prism (V 8.4.2) with complete data files uploaded to Dotmatics. The access resistance and apparent membrane capacitance were estimated using built-in protocols. Current was recorded in whole cell configuration from a population of cells. The cells were lifted, triturated, and resuspended at 800,000 cells/ml. The cells were allowed to recover in the cell hotel prior to experimentation. Currents were recorded at room temperature. The external solution contained the following (in mM): NaCl 80, NMDG 60, KCl 4, MgCl2 1, CaCl2 6, glucose 5 and HEPES 10 (pH=7.4, Osmolarity ˜300 mOsm). The extracellular solution was used as the wash, reference and compound delivery solution. The internal solution contained the following (in mM): CsF 110, CsCl 10, NaCl 10, EGTA 10, HEPES 10 (pH=7.2, Osmolarity ˜295 mOsm). The compound plate was created at 2× concentrated in the extracellular solution. The compound was diluted to 1:2 when added to the recording well. The amount of […] in the extracellular solution was held constant at the level used for the highest tested concentration. For the voltage clamp experiments on Cav3.1, data were sampled at 10 KHz. After establishment of the seal and the passage in the whole cell configuration, the cells were held at −120 mV. Cav3.1 current was evoked using a 100 ms step to −20 mV (to measure resting state block), followed by a 1600 ms step to −65 mV and a second 100 ms step to −20 mV (to measure voltage dependent block). The voltage protocol was applied every 15 seconds in the absence and in the presence of the compounds under investigation. […] Current amplitude (pA) was measured in the peak 1 and 2. The average of last 3 sweeps of each liquid period (vehicle, compound under investigation, full block) was calculated. Nickel-sensitive current was used to calculate the % of inhibition in the presence of the compound under investigation.
Sequence of Human Cav3.1 (O43497 whole entry): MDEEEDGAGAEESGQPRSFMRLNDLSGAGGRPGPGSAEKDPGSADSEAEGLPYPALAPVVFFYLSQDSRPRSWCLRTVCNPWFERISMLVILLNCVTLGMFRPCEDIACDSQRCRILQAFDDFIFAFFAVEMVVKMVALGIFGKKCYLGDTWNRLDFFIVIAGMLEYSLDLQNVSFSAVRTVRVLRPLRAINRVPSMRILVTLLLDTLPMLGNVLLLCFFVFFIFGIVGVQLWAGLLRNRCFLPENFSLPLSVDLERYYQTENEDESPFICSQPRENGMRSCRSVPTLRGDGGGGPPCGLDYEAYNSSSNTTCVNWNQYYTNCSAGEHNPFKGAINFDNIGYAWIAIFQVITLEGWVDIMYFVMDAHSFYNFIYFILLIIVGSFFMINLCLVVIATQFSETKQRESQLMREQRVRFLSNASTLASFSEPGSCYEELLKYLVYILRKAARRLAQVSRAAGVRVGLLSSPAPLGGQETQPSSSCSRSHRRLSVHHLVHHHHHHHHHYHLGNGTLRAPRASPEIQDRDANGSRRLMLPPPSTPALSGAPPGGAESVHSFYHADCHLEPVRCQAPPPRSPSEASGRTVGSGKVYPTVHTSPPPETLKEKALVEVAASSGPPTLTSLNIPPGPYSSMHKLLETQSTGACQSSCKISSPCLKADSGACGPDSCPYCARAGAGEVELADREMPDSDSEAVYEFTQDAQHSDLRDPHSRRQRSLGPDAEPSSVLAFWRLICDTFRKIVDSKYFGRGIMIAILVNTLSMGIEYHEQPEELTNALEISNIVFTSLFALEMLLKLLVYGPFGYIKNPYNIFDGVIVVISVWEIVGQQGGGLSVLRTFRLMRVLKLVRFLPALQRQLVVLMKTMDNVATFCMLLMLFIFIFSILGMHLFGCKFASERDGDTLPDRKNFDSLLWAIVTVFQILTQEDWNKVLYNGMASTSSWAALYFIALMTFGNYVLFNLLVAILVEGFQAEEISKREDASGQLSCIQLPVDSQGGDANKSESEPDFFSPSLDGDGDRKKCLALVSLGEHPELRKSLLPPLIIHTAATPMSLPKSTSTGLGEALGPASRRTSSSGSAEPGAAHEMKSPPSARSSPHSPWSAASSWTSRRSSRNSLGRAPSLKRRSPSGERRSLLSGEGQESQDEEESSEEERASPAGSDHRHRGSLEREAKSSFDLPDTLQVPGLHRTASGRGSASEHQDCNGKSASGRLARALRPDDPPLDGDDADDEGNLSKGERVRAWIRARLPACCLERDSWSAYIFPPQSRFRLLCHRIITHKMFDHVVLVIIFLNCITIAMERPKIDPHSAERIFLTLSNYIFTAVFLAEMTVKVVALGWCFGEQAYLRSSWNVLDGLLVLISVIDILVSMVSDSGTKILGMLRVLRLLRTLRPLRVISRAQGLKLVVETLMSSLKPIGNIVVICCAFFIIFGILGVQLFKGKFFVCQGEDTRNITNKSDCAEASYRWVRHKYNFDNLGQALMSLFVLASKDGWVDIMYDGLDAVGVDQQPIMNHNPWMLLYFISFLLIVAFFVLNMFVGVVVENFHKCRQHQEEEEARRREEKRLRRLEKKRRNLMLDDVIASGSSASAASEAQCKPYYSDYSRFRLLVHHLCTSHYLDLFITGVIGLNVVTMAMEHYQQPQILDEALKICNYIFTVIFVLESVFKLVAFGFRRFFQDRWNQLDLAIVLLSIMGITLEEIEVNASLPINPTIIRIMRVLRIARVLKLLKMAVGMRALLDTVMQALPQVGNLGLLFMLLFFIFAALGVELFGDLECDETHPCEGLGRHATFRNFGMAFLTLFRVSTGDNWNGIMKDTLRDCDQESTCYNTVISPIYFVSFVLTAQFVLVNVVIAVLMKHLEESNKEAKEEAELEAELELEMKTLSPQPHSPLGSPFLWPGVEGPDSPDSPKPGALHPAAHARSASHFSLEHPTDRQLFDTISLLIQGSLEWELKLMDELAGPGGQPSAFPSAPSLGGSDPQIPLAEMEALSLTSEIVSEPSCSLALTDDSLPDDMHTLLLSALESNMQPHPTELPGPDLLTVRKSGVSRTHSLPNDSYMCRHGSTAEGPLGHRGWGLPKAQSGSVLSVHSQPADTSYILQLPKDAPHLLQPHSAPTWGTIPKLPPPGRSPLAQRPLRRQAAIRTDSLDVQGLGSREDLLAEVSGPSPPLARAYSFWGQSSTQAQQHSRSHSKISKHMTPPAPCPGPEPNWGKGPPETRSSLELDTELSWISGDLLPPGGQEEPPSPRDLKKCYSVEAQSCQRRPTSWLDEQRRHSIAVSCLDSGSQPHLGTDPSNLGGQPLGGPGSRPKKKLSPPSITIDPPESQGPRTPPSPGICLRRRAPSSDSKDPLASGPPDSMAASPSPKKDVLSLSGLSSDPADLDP
In general, IC50 refers to the point on the concentration scale where inhibition reaches its midpoint. The compound `CC(C)(C)NC(=O)CN1CC2(CN(CC(=O)Nc3cc(Cl)cc(Cl)c3)C2)C1` [Example 1, N-(tert-butyl)-2-(6-(2-((3,5-dichlorophenyl)amino)-2-oxoethyl)-2,6-diazaspiro[3.3]heptan-2-yl)acetamide] showed an IC50 of less than 1000 nM.

Compound `COc1cc(F)cc(NC(=O)CN2CC3(C2)CN(CC(=O)NC(C)(C)C)C3)c1` [Example 2] showed an IC50 of 1000 to 10000 nM.

Regarding `CC(C)(C)NC(=O)CN1CC2(CN(CC(=O)Nc3cc(F)cc(C(F)F)c3)C2)C1` [Example 3], the IC50 fell in the range of 1000 to 10000 nM.

`Cc1cc(F)cc(NC(=O)CN2CC3(C2)CN(CC(=O)NC(C)(C)C)C3)c1` [Example 4] registered an IC50 of 1000 to 10000 nM.

For the compound `CC(C)(C)NC(=O)CN1CC2(CN(CC(=O)Nc3ccc(F)c(Cl)c3)C2)C1` [Example 5], the IC50 lay in the range of 1000 to 10000 nM.

In the case of `CC(C)(C)NC(=O)CN1CC2(CN(CC(=O)Nc3cccc(Cl)c3)C2)C1` [Example 6], the IC50 is 1000 to 10000 nM.

Turning to `Cc1cc(NC(=O)CN2CC3(C2)CN(CC(=O)NC(C)(C)C)C3)nn1-c1ccccc1` [Example 7], the IC50 is not below 10000 nM.

In the case of `CC(C)(C)NC(=O)CN1CC2(CN(CC(=O)Nc3cccc(Cl)c3F)C2)C1` [Example 8], the IC50 was not below 10000 nM.

Staying with this assay, now noted: Table 2, HEK-293 natClytin/TASK1+Cav3.1 cells.
For the compound `CC(C)(C)NC(=O)CN1CC2(C1)CN(Cc1nc3cc(F)cc(Cl)c3[nH]1)C2` [Example 9, N-(tert-butyl)-2-(6-((7-chloro-5-fluoro-1H-benzo[d]imidazol-2-yl)methyl)-2,6-diazaspiro[3.3]heptan-2-yl)acetamide], the IC50 is less than 1000 nM.

With `CCC(C)(C)NC(=O)CN1CC2(CN(CC(=O)Nc3cc(F)cc(Cl)c3)C2)C1` [Example 10, N-(3-chloro-5-fluoro-phenyl)-2-[2-[2-(1,1-dimethylpropylamino)-2-oxo-ethyl]-2,6-diazaspiro[3.3]heptan-6-yl]acetamide], the IC50 is less than 1000 nM.

With `CC(C)(C)NC(=O)CN1CC2(CN(CC(=O)Nc3cc(F)cc(Cl)c3)C2)C1` [Example 11], the IC50 was less than 1000 nM.

`CC(C)(C)NC(=O)CN1CC2(C1)CN(CC(=O)NC13CC4CC(CC(C4)C1)C3)C2` [Example 12]: the IC50 is 1000 to 10000 nM.

For the compound `CC(C)(C)c1nc(CN2CC3(CN(CC(=O)Nc4cc(F)cc(Cl)c4)C3)C2)co1` [Example 13], the IC50 is less than 1000 nM.

As for `CC1(NC(=O)CN2CC3(CN(CC(=O)Nc4cc(F)cc(Cl)c4)C3)C2)CCC1` [Example 14], the IC50 was less than 1000 nM.

Turning to `O=C(CN1CC2(C1)CN(Cc1coc(-c3ccccc3)n1)C2)Nc1cc(F)cc(Cl)c1` [Example 15], the IC50 was less than 1000 nM.

Compound `O=C(CN1CC2(C1)CN(CC(=O)NC1CCCC1)C2)Nc1cc(F)cc(Cl)c1` [Example 16] registered an IC50 of 1000 to 10000 nM.

With `CC(C)(NC(=O)CN1CC2(CN(CC(=O)Nc3cc(F)cc(Cl)c3)C2)C1)C(F)(F)F` [Example 17], the IC50 lay within 1000 to 10000 nM.

For the compound `O=C(CN1CC2(C1)CN(Cc1nc3ccccc3[nH]1)C2)Nc1cc(F)cc(Cl)c1` [Example 18], the IC50 was less than 1000 nM.

As to `CC(C)(C)c1coc(CN2CC3(CN(CC(=O)Nc4cc(F)cc(Cl)c4)C3)C2)n1` [Example 19], the IC50 was in the range of 1000 to 10000 nM.

In the case of `O=C(CN1CC2(CN(CCC3CCCC3)C2)C1)Nc1cc(F)cc(Cl)c1` [Example 20], the IC50 was less than 1000 nM.

`CC(C)(C)CCN1CC2(C1)CN(CC(=O)Nc1cc(F)cc(Cl)c1)C2` [Example 21]: the IC50 is less than 1000 nM.

Consider `Cc1nc(CN2CC3(CN(CC(=O)Nc4cc(F)cc(Cl)c4)C3)C2)co1` [Example 22], for which the IC50 was 1000 to 10000 nM.

Turning to `O=C(CN1CC2(C1)CN(Cc1cnc(-c3ccccc3)[nH]1)C2)Nc1cc(F)cc(Cl)c1` [Example 23], the IC50 was less than 1000 nM.

For `COc1cccc(CN2CC3(CN(CC(=O)Nc4cc(F)cc(Cl)c4)C3)C2)c1` [Example 24], the IC50 was in the range of 1000 to 10000 nM.

Take `O=C(CN1CC2(C1)CN(Cc1cccc(Cl)c1)C2)Nc1cc(F)cc(Cl)c1` [Example 25]: the IC50 was less than 1000 nM.

With `O=C(CN1CC2(CN(CCC3CCC(F)(F)CC3)C2)C1)Nc1cc(F)cc(Cl)c1` [Example 26], the IC50 was less than 1000 nM.

As to `O=C(CN1CC2(C1)CN(Cc1cccc(C(F)F)c1)C2)Nc1cc(F)cc(Cl)c1` [Example 27], the half-maximal inhibitory concentration (IC50) was less than 1000 nM.

`O=C(CN1CC2(C1)CN(Cc1nc(-c3ccccc3)co1)C2)Nc1cc(F)cc(Cl)c1` [Example 28] came in with a half-inhibitory concentration (IC50) of 1000 to 10000 nM.

`CC(C)(C)c1ncc(CN2CC3(CN(CC(=O)Nc4cc(F)cc(Cl)c4)C3)C2)[nH]1` [Example 29] yielded an IC50 of 1000 to 10000 nM.

Compound `Cc1coc(CN2CC3(CN(CC(=O)Nc4cc(F)cc(Cl)c4)C3)C2)n1` [Example 30] showed a half-inhibitory concentration (IC50) of 1000 to 10000 nM.

`CC(C)(NC(=O)CN1CC2(C1)CN(Cc1nc3c(Cl)cc(F)cc3[nH]1)C2)C(F)(F)F` [Example 31] showed an IC50 of less than 1000 nM.

As to `CCC(C)(C)NC(=O)CN1CC2(C1)CN(Cc1nc3c(Cl)cc(F)cc3[nH]1)C2` [Example 32], the IC50 is less than 1000 nM.

Compound `CC(C)(C)CCN1CC2(C1)CN(Cc1nc3c(Cl)cc(F)cc3[nH]1)C2` [Example 33] yielded an IC50 of less than 1000 nM.

In turn, `Fc1cc(Cl)c2nc(CN3CC4(CN(CCC5CCCC5)C4)C3)[nH]c2c1` [Example 34] returned an IC50 of less than 1000 nM.

The compound `CC(C)(C)CCCN1CC2(C1)CN(Cc1nc3c(Cl)cc(F)cc3[nH]1)C2` [Example 35] displayed an IC50 of less than 1000 nM.

In turn, `Fc1cc(Cl)c2nc(CN3CC4(C3)CN(CC3CCC(F)(F)CC3)C4)[nH]c2c1` [Example 36] had an IC50 of less than 1000 nM.

In the case of `Cc1cccc2[nH]c(CN3CC4(CN(CC(=O)NC(C)(C)C)C4)C3)nc12` [Example 37], the concentration for half-maximal inhibition (IC50) is 1000 to 10000 nM.

Consider `Cc1cc(F)cc2[nH]c(CN3CC4(CN(CC(=O)NC(C)(C)C)C4)C3)nc12` [Example 38], for which the IC50 was in the range of 1000 to 10000 nM.

For the compound `CC(C)(C)NC(=O)CN1CC2(C1)CN(Cc1nc3c(Cl)cc(Cl)cc3[nH]1)C2` [Example 39], the IC50 is less than 1000 nM.

Turning to `CC(C)(C)NC(=O)CN1CC2(C1)CN(Cc1nc3c(F)cc(OC(F)F)cc3[nH]1)C2` [Example 40], the IC50 fell in the range of 1000 to 10000 nM.

The compound `CC(C)(C)NC(=O)CN1CC2(CN(CC(=O)Nc3cc(F)cc(OC(F)F)c3)C2)C1` [Example 41] showed an IC50 of 1000 to 10000 nM.

In the case of `CC(C)(C)NC(=O)CN1CC2(C1)CN(C(=O)Nc1cc(F)cc(Cl)c1)C2` [Example 43], the IC50 is less than 1000 nM.

These data come from patent US20250215011A1, “T-TYPE CALCIUM CHANNEL MODULATORS COMPRISING A DIAZASPIROHEPTANE CORE AND METHODS OF USE THEREOF” (Praxis Precision Medicines, Inc., priority 2022, published 2025).
